The values below come from ChEMBL document CHEMBL1743201, “Casarett and Doull's Toxicology The Basic Science of Poisons, 7th edition” (2008).

Common to all, as to type: ADME
For series [1], the target named is T1, Cytochrome P450 1A2 (Homo sapiens, UniProt P05177).
T1 sequence (P05177 whole entry): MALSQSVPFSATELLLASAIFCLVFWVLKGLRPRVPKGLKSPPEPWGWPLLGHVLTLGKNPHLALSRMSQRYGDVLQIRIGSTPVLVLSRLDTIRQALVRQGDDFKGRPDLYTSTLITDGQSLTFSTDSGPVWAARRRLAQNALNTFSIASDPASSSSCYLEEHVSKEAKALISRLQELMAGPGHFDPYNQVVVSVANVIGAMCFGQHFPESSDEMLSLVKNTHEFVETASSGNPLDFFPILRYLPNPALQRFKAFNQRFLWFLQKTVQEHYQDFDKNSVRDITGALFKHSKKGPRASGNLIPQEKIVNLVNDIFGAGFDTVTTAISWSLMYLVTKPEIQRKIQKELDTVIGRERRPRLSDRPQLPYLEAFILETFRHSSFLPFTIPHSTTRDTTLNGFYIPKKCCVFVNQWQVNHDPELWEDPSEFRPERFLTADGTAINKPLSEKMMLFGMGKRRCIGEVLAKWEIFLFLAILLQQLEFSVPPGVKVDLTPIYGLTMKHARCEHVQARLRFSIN
Nature of the series: Clinically relevant inhibitors of human liver microsomal P450 enzymes, isoform CYP1A2. To be noted: microsomes. Background: Microsomes from liver hold many membrane-bound enzymes, among them those of drug oxidation.

Series [2] deals with T2, Cytochrome P450 2C9 (Homo sapiens, UniProt P11712). Nature of the series: Clinically relevant inhibitors of human liver microsomal P450 enzymes, isoform CYP2C9. To be noted: microsomes.
For series [3], the target named is T3, UDP-glucuronosyltransferase 1A4 (Homo sapiens, UniProt P22310).
T3 sequence (P22310 whole entry): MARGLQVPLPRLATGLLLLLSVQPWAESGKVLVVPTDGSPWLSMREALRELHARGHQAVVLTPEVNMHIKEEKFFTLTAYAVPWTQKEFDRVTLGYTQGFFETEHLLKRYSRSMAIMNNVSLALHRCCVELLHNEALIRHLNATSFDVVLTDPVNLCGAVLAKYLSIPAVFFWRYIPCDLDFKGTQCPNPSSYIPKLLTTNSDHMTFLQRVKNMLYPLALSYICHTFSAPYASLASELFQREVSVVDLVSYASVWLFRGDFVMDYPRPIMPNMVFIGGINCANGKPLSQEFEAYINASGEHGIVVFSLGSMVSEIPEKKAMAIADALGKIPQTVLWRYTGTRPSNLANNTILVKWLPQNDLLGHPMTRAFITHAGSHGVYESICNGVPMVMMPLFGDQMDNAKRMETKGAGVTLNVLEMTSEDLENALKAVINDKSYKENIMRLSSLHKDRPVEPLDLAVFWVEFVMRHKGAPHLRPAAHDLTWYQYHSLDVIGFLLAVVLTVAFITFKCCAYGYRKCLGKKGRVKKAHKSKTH
Nature of the series: Substrate of human UDP-glucuronosyltransferase UGT1A4.

Another series addresses Cytochrome P450 2D6 (Homo sapiens, UniProt P10635). Nature of the series: Clinically relevant inhibitors of human liver microsomal P450 enzymes, isoform CYP2D6. Conditions: microsomes.
Series [4] has as its target T4, UDP-glucuronosyltransferase 1A7 (Homo sapiens, UniProt Q9HAW7).
T4 sequence (Q9HAW7 whole entry): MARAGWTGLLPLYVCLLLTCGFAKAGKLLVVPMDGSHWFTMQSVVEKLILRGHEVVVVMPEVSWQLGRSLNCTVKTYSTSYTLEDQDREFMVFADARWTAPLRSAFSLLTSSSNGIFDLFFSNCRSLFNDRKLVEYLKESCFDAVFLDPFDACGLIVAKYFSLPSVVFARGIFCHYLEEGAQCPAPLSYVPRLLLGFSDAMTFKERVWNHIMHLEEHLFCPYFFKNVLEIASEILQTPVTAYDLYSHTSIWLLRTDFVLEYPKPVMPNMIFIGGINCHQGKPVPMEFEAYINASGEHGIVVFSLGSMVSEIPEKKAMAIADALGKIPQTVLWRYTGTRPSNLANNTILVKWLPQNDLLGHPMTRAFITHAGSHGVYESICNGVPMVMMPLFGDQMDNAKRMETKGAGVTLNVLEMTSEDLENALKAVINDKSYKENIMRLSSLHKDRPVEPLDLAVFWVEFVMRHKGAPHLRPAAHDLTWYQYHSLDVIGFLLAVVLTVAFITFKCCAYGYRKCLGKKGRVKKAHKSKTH
Kind of series: Substrate of human UDP-glucuronosyltransferase UGT1A7.

Series [5] deals with T5, UDP-glucuronosyltransferase 1A9 (Homo sapiens, UniProt O60656).
T5 sequence (O60656 whole entry): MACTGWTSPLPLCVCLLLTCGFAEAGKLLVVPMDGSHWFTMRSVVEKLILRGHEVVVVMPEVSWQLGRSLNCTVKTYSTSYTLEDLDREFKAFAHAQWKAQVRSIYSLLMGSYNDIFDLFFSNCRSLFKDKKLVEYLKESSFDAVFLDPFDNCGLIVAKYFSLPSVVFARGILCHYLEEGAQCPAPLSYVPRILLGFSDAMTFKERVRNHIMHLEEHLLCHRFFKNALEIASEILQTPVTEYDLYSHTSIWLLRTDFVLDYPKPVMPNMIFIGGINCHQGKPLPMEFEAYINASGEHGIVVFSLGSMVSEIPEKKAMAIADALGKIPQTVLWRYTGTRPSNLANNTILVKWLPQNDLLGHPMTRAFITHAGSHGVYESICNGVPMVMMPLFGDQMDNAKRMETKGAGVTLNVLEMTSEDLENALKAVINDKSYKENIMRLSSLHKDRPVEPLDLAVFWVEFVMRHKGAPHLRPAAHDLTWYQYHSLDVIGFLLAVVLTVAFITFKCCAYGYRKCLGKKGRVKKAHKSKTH
Kind of series: Substrate of human UDP-glucuronosyltransferase UGT1A9.

For series [6], the target named is T2, Cytochrome P450 2C9. Kind of series: Clinically relevant substrates of human liver microsomal P450 enzymes, isoform CYP2C9. Conditions: microsomes.
The target in series [7] is T6, UDP-glucuronosyltransferase 2B15 (Homo sapiens, UniProt P54855).
T6 sequence (P54855 whole entry): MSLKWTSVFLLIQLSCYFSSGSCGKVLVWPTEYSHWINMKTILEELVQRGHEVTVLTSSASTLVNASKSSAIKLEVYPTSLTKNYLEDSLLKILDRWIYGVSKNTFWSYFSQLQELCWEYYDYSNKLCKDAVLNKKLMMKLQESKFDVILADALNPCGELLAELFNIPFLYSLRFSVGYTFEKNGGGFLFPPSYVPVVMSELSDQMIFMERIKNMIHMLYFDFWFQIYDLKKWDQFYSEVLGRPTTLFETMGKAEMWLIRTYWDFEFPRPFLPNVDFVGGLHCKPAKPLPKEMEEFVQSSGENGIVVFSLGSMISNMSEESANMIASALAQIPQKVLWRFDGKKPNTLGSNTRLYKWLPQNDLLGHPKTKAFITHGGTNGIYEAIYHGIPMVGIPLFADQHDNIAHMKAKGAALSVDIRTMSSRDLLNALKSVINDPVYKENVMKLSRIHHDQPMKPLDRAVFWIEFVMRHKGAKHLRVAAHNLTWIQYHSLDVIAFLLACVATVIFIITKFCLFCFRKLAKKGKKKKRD
Kind of series: Substrate of human UDP-glucuronosyltransferase UGT2B15.

Series [8] deals with T7, UDP-glucuronosyltransferase 1A6 (Homo sapiens, UniProt P19224).
T7 sequence (P19224 whole entry): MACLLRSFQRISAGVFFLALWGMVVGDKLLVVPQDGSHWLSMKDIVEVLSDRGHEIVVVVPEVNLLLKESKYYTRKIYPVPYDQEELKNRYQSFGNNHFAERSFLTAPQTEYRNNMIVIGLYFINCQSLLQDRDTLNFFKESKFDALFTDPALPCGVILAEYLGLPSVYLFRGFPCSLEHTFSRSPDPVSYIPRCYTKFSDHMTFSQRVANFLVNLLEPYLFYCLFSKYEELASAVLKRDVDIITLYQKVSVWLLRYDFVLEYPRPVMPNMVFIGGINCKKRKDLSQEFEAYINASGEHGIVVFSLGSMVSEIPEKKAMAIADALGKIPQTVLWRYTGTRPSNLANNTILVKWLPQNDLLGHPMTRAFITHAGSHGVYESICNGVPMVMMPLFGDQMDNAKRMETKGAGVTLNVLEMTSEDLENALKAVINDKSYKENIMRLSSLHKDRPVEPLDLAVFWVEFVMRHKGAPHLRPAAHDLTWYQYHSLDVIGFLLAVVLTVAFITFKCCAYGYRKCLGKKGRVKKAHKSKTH
Nature of the series: Substrate of human UDP-glucuronosyltransferase UGT1A6.

Series [9] addresses T8, UDP-glucuronosyltransferase 2B7 (Homo sapiens, UniProt P16662).
T8 sequence (P16662 whole entry): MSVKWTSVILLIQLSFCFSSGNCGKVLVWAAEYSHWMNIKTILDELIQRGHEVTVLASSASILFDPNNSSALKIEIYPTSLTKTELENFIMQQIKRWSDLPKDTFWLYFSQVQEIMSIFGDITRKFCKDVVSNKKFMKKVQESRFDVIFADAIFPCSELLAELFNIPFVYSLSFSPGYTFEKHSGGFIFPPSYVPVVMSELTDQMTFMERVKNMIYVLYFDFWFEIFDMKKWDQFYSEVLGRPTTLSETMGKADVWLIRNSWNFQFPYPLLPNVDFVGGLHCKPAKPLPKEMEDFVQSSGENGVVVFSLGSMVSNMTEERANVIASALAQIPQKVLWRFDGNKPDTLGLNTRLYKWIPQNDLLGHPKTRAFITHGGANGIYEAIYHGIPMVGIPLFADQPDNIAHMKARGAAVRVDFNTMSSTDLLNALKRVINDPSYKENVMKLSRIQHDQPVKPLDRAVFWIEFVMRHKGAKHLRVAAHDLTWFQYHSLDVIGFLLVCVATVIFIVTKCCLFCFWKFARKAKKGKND
Nature of the series: Substrate of human UDP-glucuronosyltransferase UGT2B7.

For the next series, the target named is Cytochrome P450 2C19 (Homo sapiens, UniProt P33261). Nature of the series: Clinically relevant substrates of human liver microsomal P450 enzymes, isoform CYP2C19. Conditions: microsomes.
For series [10], the target named is T1, Cytochrome P450 1A2. Kind of series: Clinically relevant inducers of human liver microsomal P450 enzymes, isoform CYP1A2. Conditions: microsomes.

Chain of Cytochrome P450 2C19 (P33261 whole entry, canonical isoform): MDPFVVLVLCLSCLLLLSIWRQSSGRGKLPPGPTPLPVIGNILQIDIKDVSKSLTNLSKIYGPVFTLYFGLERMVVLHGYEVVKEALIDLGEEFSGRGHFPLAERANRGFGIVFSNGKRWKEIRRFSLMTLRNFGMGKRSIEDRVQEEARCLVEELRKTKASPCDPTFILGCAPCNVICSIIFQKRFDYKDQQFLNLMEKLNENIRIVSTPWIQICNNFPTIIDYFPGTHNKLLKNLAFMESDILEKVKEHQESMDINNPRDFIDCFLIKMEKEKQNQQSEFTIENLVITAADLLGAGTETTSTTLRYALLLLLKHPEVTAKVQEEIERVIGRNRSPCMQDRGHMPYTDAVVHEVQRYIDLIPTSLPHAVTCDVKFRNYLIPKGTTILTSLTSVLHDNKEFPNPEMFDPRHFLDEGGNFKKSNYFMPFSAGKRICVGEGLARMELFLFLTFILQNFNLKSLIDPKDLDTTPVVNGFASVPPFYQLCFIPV
T2 sequence (P11712 whole entry, canonical isoform): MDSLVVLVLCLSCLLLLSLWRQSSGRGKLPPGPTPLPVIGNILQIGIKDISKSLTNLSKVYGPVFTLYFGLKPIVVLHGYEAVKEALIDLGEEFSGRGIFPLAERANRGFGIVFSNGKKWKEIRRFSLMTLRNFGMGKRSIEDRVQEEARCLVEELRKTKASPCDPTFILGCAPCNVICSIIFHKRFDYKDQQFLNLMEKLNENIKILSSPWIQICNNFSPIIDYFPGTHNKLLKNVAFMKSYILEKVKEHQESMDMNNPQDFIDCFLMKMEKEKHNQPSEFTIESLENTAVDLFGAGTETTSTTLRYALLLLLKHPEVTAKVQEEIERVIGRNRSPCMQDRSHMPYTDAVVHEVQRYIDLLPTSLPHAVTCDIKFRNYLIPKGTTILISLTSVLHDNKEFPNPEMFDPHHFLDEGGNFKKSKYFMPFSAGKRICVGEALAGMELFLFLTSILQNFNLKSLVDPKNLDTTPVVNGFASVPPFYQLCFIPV
Chain of Cytochrome P450 2D6 (P10635 whole entry, canonical isoform): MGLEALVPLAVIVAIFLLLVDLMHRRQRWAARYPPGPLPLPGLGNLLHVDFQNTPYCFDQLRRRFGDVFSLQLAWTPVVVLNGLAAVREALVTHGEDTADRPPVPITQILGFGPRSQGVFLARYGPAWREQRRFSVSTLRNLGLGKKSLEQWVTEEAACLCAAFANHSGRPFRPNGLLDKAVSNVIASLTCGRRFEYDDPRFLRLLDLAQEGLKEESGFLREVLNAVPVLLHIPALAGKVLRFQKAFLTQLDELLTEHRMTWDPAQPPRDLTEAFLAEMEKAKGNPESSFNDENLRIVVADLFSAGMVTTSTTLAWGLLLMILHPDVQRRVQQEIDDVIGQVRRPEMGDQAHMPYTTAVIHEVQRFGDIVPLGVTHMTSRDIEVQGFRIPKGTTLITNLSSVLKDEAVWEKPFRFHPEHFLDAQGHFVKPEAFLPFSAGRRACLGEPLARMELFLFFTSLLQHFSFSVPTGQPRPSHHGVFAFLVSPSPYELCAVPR

As to `COCCCC/C(=N\OCCN)c1ccc(C(F)(F)F)cc1` [FLUVOXAMINE], the Activity entry at Cytochrome P450 1A2 [1] and on Cytochrome P450 2C9 [2] was “Inhibitor” each time.
As to `CC(c1cc2ccccc2s1)N(O)C(N)=O` (configuration not stated) [ZILEUTON], the Activity entry on Cytochrome P450 1A2 [1] is recorded as “Inhibitor”.
Consider `Nc1nnc(-c2cccc(Cl)c2Cl)c(N)n1` [LAMOTRIGINE], for which the Activity result in series [3] is given as “Substrate”.
For the compound `CN1CCN(CCCN2c3ccccc3Sc3ccc(C(F)(F)F)cc32)CC1` [TRIFLUOPERAZINE], the Activity result in [3] is reported as “Substrate”.
Regarding `CN/C(=N/CCSCc1nc[nH]c1C)NC#N` [CIMETIDINE], the Activity result on Cytochrome P450 1A2 [1] and on Cytochrome P450 2D6 was “Inhibitor” throughout.
On to `COCC(=O)O[C@]1(CCN(C)CCCc2nc3ccccc3[nH]2)CCc2cc(F)ccc2[C@@H]1C(C)C` [MIBEFRADIL], for which the Activity result on Cytochrome P450 2D6 is “Inhibitor”.
The same measure, in the same setting: the entry for `CN(C/C=C/C#CC(C)(C)C)Cc1cccc2ccccc12` [TERBINAFINE] is “Inhibitor”; for `CN[C@H]1CC[C@@H](c2ccc(Cl)c(Cl)c2)c2ccccc21` [SERTRALINE] it is “Inhibitor”.
On to `CCn1cc(C(=O)O)c(=O)c2cc(F)c(N3CCNCC3)cc21` [NORFLOXACIN], for which the Activity result at Cytochrome P450 1A2 [1] was “Inhibitor”.
On to `Fc1ccc([C@@H]2CCNC[C@H]2COc2ccc3c(c2)OCO3)cc1` [PAROXETINE], for which, on Cytochrome P450 2D6, the Activity result was “Inhibitor”.
Regarding `CCCCCCCCOC(=O)c1cc(O)c(O)c(O)c1` [OCTYL_GALLATE], the Activity result in series [4] is recorded as “Substrate”.
Still for that read-out and setting: the entry for `Oc1ccc(-c2ccccc2)cc1` is “Substrate”.
For the compound `O=C(O)Cc1ccccc1Nc1c(Cl)cccc1Cl` [DICLOFENAC], the Activity entry (in [5]; at Cytochrome P450 2C9 [6]; in series [7]; in series [8]; in series [9]) was “Substrate” throughout.
Take `Cc1c(OCC(F)(F)F)ccnc1C[S+]([O-])c1nc2ccccc2[nH]1` (configuration not stated) [LANSOPRAZOLE]: the Activity entry is reported as “Substrate” on Cytochrome P450 2C19 and “Inducer” at Cytochrome P450 1A2 [10].
Turning to `O=c1cc(-c2ccccc2)oc2ccc3ccccc3c12` [BETA-NAPHTHOFLAVONE], the Activity entry at Cytochrome P450 1A2 [10] is on record as “Inducer”.
For `CN(C)CCC=C1c2ccccc2CCc2ccccc21` [AMITRIPTYLINE], the Activity result in series [3] was “Substrate”.
With `Cc1ccc2cc3c(ccc4ccccc43)c3c2c1CC3` [3-METHYLCHOLANTHRENE], the Activity entry on Cytochrome P450 1A2 [10] is listed as “Inducer”.
On to `Cc1cccc(C)c1OCC(C)N` (configuration not stated) [MEXILETINE], for which, at Cytochrome P450 1A2 [1], the Activity entry is “Inhibitor”.
As for `CN(C)CCC=C1c2ccccc2C=Cc2ccccc21` [CYCLOBENZAPRINE], the Activity result in series [3] is given as “Substrate”.
Still for that read-out and setting: the same measure for `Cc1cc2c(s1)Nc1ccccc1N=C2N1CCN(C)CC1` [OLANZAPINE]: “Substrate”.
For the compound `COc1ccnc(C[S+]([O-])c2nc3ccc(OC(F)F)cc3[nH]2)c1OC` (configuration not stated) [PANTOPRAZOLE], the Activity entry at Cytochrome P450 2C19 was “Substrate”.
Regarding `CNCCC(Oc1ccc(C(F)(F)F)cc1)c1ccccc1` (configuration not stated) [FLUOXETINE], the Activity result at Cytochrome P450 2C19 is “Substrate”; at Cytochrome P450 2C9 [6], “Substrate”; at Cytochrome P450 2C9 [2], “Inhibitor”.
For `O=C(NCCN1CCOCC1)c1ccc(Cl)cc1` [MOCLOBEMIDE], the Activity entry at Cytochrome P450 2C19 is “Substrate”.
